In series [1] the test system is HIV-1 89.6. Nature of the series: Anti-HIV activity in PBMC culture ex vivo, p24 in culture supernatants. In kind it is cell-based, human. Conditions: PBMCs infected with HIV-1 89.6, day 3 of the culture. The procedure:
PBMCs were treated with NCD1 or not treated, followed by infection with HIV-1 89.6. Samples were pelleted on days 0, 2, and 3. Culture supernatants were assayed for p24 concentration. The assay was done in triplicate.
HIV p24 Assay: HIV-1 p24 ELISA was performed using HIV-1 p24 antigen capture assay according to manufacturer's protocol (Advanced BioSciences Laboratory).
To confirm the activity of the newly synthesized compounds in HIV infected human cells, peripheral blood mononuclear cells (PBMCs) from healthy humans were cultured and parallel assays with PBMCs treated with NCD1 and samples with no treatment were run, followed by infection with HIV-1 89.6. Samples were pelleted on days 0, 2, and 3. Culture supernatants were assayed for p24 concentration.

The subject of series [2] is HIV-89.6. The series is described as follows: HIV binding in culture supernatant, total HIV RNA in supernatant. To be noted: non-sulfated, unmodified oligochitosan. The procedure: The desired compound in PBS or DMSO was incubated with virus for 30 min and then centrifuged. Total RNA isolated from supernatant was quantified. The assay was done in triplicate.
Medium/blood samples. To ensure uniformity and reproducibility, standards with known viral copy numbers of HIV89.6 (NIH NIAID repository) were prepared. A known amount of virus was spiked into cell culture medium in ten-fold serial dilutions. HIV-1 RNA was extracted using the High Pure viral RNA kit (Ambion). Complementary DNA (cDNA) was synthesized with the SuperScript III cDNA Synthesis Kit (Invitrogen) and amplified and quantified using primers specific for HIV-1 LTR. Real-time PCR amplification was performed in a CFX96™ Real-Time system (Bio-Rad, Hercules, CA). […] HIV-1 specific amplicons were detected using SYBR Green (Bio-Rad). The number of HIV-1 RNA copies in each test template was measured by its threshold cycle (Ct) as determined from the curve of serially diluted standards using data analysis software (Bio-Rad CFX Manager). […] Quantification of HIV-1 RNA in each test sample was back calculated and viral load was expressed as copies/ml. […]
Quantitative real time PCR was performed using BioRad CFX 96 with the known amounts of HIV-1 RNA as standards. The starting quantity of HIV-1 RNA in the samples treated with different compounds was determined using the standard curve and is plotted on the graph. […]

Series [3] can be described thus: Solubility in water. It is filed as physicochemical.

Results on two substances are retold here after US20230285442A1, “USE OF OLIGOCHITOSANS AND DERIVATIVES THEREOF FOR NEUTRALIZING VIRAL AGENTS” (priority 2020, published 2023).

With Oligochitosan 10 kDa [NCD1], the “p24 levels in culture supernatants, treated vs non-treated cells” value in series [1] is “significantly reduced”. Further, the “binding to HIV” value in series [2] was “surprising and unexpected binding to HIV”. For the same substance, the solubility in water entry in series [3] is “soluble”.

As to Starch azure [NCD9], in series [3], the solubility in water entry is listed as “insoluble in water”.
